PubChem BioAssay AID1671257

Molecular target: Tyrosine-protein kinase ABL2 (Homo sapiens) (UniProt P42684)
Test: inhibitors of human ABL2 (Arg) tyrosine kinase activity – biochemical, Z'-LYTE, FRET readout, direct format, dose response (AID 1671257)
Conditions: Z'-LYTE FRET kinase assay, recombinant ABL2

Sequence of Tyrosine-protein kinase ABL2 (Homo sapiens) (P42684 whole entry, looked up): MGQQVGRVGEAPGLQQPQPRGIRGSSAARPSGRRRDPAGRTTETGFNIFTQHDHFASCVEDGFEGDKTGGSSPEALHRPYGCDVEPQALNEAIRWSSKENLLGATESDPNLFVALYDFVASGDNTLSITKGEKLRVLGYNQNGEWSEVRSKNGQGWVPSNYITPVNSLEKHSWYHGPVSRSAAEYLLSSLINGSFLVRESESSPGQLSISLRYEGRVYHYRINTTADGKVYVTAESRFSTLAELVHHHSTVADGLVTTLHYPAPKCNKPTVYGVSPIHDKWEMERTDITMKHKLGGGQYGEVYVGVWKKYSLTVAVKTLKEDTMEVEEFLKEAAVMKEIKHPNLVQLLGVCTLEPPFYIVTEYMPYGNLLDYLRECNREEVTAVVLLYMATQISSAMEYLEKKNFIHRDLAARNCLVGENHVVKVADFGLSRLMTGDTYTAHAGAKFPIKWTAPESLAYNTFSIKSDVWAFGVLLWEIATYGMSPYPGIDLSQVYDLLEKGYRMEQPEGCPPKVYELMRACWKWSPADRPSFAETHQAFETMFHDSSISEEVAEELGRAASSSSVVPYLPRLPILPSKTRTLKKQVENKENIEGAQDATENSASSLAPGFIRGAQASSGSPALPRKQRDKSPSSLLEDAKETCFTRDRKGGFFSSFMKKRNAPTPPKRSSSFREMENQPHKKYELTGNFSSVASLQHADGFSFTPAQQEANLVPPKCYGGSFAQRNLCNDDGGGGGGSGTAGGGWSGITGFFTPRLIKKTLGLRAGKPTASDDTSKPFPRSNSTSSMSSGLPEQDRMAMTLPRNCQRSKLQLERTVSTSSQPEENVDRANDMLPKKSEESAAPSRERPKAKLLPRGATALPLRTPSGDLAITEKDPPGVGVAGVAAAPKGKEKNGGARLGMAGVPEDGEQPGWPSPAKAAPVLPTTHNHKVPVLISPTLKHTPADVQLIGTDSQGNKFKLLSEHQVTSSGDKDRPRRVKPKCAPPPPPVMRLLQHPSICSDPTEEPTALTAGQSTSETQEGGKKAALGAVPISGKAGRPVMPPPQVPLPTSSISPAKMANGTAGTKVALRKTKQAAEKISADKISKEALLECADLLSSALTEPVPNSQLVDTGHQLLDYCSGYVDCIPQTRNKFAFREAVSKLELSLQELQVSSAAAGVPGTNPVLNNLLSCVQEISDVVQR

IC50: 1.05 µM
Structure (SMILES): COc1cc2ncnc(Nc3cccc(Cl)c3)c2cc1OC
